Among the data in patent US8299048B2, “Hexahydrocyclopentyl[f]indazole sulfonamides and derivatives thereof as selective glucocorticoid receptor modulators” (Merck Sharp & Dohme Corp., priority 2008, dated 2012) are Ki values, retold here.

For the test, the target named is T1, glucocorticoid receptor (Homo sapiens, UniProt P04150).
T1 construct: endogenous in cells
T1 sequence (P04150 1-777): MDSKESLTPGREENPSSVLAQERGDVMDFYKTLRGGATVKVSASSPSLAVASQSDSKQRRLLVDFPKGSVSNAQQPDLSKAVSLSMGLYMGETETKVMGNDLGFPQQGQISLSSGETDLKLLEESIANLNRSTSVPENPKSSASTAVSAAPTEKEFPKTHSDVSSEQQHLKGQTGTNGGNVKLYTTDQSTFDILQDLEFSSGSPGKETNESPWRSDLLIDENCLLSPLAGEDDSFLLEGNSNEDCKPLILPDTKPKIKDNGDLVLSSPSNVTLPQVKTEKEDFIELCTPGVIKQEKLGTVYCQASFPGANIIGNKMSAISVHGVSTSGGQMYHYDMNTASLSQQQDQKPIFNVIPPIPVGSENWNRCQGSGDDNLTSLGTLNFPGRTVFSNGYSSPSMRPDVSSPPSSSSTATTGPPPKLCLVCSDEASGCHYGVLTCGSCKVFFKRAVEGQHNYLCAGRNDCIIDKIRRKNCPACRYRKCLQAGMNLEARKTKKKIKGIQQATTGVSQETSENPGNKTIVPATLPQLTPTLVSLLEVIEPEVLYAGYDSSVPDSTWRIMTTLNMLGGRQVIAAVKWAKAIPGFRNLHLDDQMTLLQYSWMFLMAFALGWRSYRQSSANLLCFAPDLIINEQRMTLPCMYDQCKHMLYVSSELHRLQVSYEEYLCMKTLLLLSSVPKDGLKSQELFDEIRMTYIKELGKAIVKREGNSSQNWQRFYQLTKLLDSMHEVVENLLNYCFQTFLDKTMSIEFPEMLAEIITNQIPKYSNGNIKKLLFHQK
Briefly: Ligand binding assay (GR BIND). An outline of the steps:
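Displacement of tritiated dexamethasone (6 nM trace solution) from receptor in cell supernatant was measured after overnight incubation at 4 °C in molybdate-containing TEGM, pH 7.2, 2% ethanol. Hydroxylapatite pulled down the receptor–ligand complex for filter washing and scintillation counting, with dexamethasone as reference.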
Turning to `C[C@]12Cc3cnn(-c4ccc(F)cc4)c3C=C1CC[C@@H]2CN(CC#N)S(=O)(=O)c1cc(F)c(F)cc1F` [Example 47, N-(cyanomethyl)-2,4,5-trifluoro-N-{[(4αR,5S)-1-(4-fluorophenyl)-4α-methyl-1,4,4α,5,6,7-hexahydrocyclopenta[f]indazol-5-yl]methyl}benzenesulfonamide], the affinity, expressed as Ki, was 0.7 nM.

Consider `C[C@]12Cc3cnn(-c4ccc(F)cc4)c3C=C1CC[C@@H]2CN(CC#N)S(=O)(=O)Cc1ccccc1` [Example 48, N-(cyanomethyl)-N-{[(4αR,5S)-1-(4-fluorophenyl)-4α-methyl-1,4,4α,5,6,7-hexahydrocyclopenta[f]indazol-5-yl]methyl}-1-phenylmethanesulfonamide], for which the inhibitory constant (Ki) worked out at 0.9 nM. `Cc1ccccc1S(=O)(=O)N(CC#N)C[C@H]1CCC2=Cc3c(cnn3-c3ccc(F)cc3)C[C@@]21C` [Example 49, N-(cyanomethyl)-N-{[(4αR,5S)-1-(4-fluorophenyl)-4α-methyl-1,4,4α,5,6,7-hexahydrocyclopenta[f]indazol-5-yl]methyl}-2-methylbenzenesulfonamide] showed a Ki of 1.8 nM. To `C[C@]12Cc3cnn(-c4ccc(F)cc4)c3C=C1CC[C@@H]2CN(CC#N)S(=O)(=O)c1ccccc1Cl` [Example 50, 2-chloro-N-(cyanomethyl)-N-{[(4αR,5S)-1-(4-fluorophenyl)-4α-methyl-1,4,4α,5,6,7-hexahydrocyclopenta[f]indazol-5-yl]methyl}benzenesulfonamide] belongs 6.5 nM; to `C[C@]12Cc3cnn(-c4ccc(F)cc4)c3C=C1CC[C@@H]2CN(CC#N)S(=O)(=O)c1ccc(F)cc1F` [Example 51, N-(cyanomethyl)-2,4-difluoro-N-{[(4αR,5S)-1-(4-fluorophenyl)-4α-methyl-1,4,4α,5,6,7-hexahydrocyclopenta[f]indazol-5-yl]methyl}benzenesulfonamide], 2.5 nM.

`Cc1nn(C)c(Cl)c1S(=O)(=O)N(CC#N)C[C@H]1CCC2=Cc3c(cnn3-c3ccc(F)cc3)C[C@@]21C` [Example 52, 5-chloro-N-(cyanomethyl)-N-{[(4αR,5S)-1-(4-fluorophenyl)-4α-methyl-1,4,4α,5,6,7-hexahydrocyclopenta[f]indazol-5-yl]methyl}-1,3-dimethyl-1H-pyrazole-4-sulfonamide] registered an inhibition constant Ki of 1.9 nM. For `C[C@]12Cc3cnn(-c4ccc(F)cc4)c3C=C1CC[C@@H]2CN(CC#N)S(=O)(=O)c1ccccc1-c1ccccc1` [Example 53, N-(cyanomethyl)-N-{[(4αR,5S)-1-(4-fluorophenyl)-4α-methyl-1,4,4α,5,6,7-hexahydrocyclopenta[f]indazol-5-yl]methyl}biphenyl-2-sulfonamide], affinity was put at a Ki of 3.7 nM. As to `C[C@]12Cc3cnn(-c4ccc(F)cc4)c3C=C1CC[C@@H]2CN(CC#N)S(=O)(=O)c1ccccc1C(F)(F)F` [Example 54, N-(cyanomethyl)-N-{[(4αR,5S)-1-(4-fluorophenyl)-4α-methyl-1,4,4α,5,6,7-hexahydrocyclopenta[f]indazol-5-yl]methyl}-2-(trifluoromethyl)benzenesulfonamide], affinity was put at a Ki of 8.5 nM.

Turning to `C[C@]12Cc3cnn(-c4ccc(F)cc4)c3C=C1CC[C@@H]2CN(CC#N)S(=O)(=O)c1ccccc1C#N` [Example 55], the affinity, expressed as Ki, was 2.7 nM. To `Cc1oncc1S(=O)(=O)N(CCO)C[C@H]1CCC2=Cc3c(cnn3-c3ccc(F)cc3)C[C@@]21C` [Example 56, N-{[(4αR,5S)-1-(4-fluorophenyl)-4α-methyl-1,4,4α,5,6,7-hexahydrocyclopenta[f]indazol-5-yl]methyl}-N-(2-hydroxyethyl)-5-methylisoxazole-4-sulfonamide] belongs 4.6 nM; to `C[C@]12Cc3cnn(-c4ccc(F)cc4)c3C=C1CC[C@@H]2CN(CCO)S(=O)(=O)c1cc(Cl)c(Cl)s1` [Example 58, 4,5-dichloro-N-{[(4αR,5S)-1-(4-fluorophenyl)-4α-methyl-1,4,4α,5,6,7-hexahydrocyclopenta[f]indazol-5-yl]methyl}-N-(2-hydroxyethyl)thiophene-2-sulfonamide], 2.3 nM.

One may read the Ki as a measure of affinity in units of concentration, obtained from inhibition or displacement. The low end stands for tighter binding, the high end for weaker binding.
